Drawing on patent US9458105B2, “Inhibitors of Bruton's tyrosine kinase” (Hoffmann-La Roche Inc., priority 2012, dated 2016), this text covers IC50 for ten compounds.

For orientation: IC50 means the point on the concentration scale where inhibition reaches its midpoint. Read a low IC50 as inhibition by little substance.

Bruton's Tyrosine Kinase (inactivated state), sequence (Q06187 whole entry): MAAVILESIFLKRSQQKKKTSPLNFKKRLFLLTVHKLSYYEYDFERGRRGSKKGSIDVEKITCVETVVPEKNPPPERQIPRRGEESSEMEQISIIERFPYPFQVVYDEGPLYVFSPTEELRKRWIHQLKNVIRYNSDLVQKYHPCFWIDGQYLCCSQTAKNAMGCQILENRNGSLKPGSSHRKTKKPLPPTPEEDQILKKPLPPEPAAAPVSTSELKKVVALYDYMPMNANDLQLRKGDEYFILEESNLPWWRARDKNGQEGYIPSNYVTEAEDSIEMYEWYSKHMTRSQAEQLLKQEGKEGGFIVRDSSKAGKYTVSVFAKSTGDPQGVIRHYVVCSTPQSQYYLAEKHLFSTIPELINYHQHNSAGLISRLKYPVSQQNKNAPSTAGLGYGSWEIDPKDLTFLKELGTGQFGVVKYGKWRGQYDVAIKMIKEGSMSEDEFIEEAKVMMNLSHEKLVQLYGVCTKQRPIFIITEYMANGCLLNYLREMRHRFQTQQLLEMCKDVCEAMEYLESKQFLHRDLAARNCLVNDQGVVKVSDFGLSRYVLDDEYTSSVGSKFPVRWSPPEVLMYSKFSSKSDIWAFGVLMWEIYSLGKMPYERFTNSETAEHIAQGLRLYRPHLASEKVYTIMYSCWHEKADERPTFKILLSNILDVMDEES

For the assay, the target named is Bruton's Tyrosine Kinase (inactivated state) (Homo sapiens (Human), UniProt Q06187). The experiment in a line: Bruton's Tyrosine Kinase (BTK) Inhibition TR-FRET (Time Resolved FRET) competition assay. The assay is classed as binding. As to conditions: BTK-Eu / Kinase Tracer 178 competition, incubated 18-24 h at 14° C. The protocol:
Bruton's Tyrosine Kinase (BTK) Inhibition TR-FRET (Time Resolved FRET) Assay
This BTK competition assay measures compound potency (IC50) for the inactivated state of Bruton's Tyrosine Kinase using FRET (Forster/Fluorescence Resonance Energy Transfer) technology. The BTK-Eu complex was incubated on ice one hour prior to use at a starting concentration of 50 nM BTK-Bioease™: 10 nM Eu-streptavidin (Perkin-Elmer Catalog #AD0062). The assay buffer consisted of 20 mM HEPES (pH 7.15), 0.1 mM DTT, 10 mM MgCl2, 0.5 mg/ml BSA with 3% Kinase Stabilizer (Fremont Biosolutions, Catalog #STB-K02). After 1 h, the reaction mixture from above was diluted 10 fold in assay buffer to make 5 nM BTK: 1 nM Eu-Streptavidin complex (donor fluorophore). 18 μl of a mixture of 0.11 nM BTK-Eu and 0.11 nM Kinase Tracer 178 (Invitrogen, Catalog #PV5593,) with BTK-Eu alone as no negative control, was then dispensed into 384-well flat bottom plates (Greiner, 784076). Compounds to be tested in assay were prepared as 10× concentrations and serial dilution in half-log increments was performed in DMSO so as to generate 10 point curves. To initiate the FRET reaction, compounds prepared as 10× stock in DMSO was added to the plates and the plates were incubated 18-24 h at 14° C.
After the incubation the plates were read on a BMG Pherastar Fluorescent plate reader (or equivalent) and used to measure the emission energy from the europium donor fluorophore (620 nm emission) and the FRET (665 nm emission). The negative control well values were averaged to obtain the mean minimum. The positive “no inhibitor” control wells were averaged to obtain the mean maximum. Percent of maximal FRET was calculated using following equation: % max FRET=100×[(FSRcmpd−FSRmean min)/(FSRmean max−FSRmean min)]
where FSR=FRET Signal ratio. % Max FRET curves were plotted in Activity Base (Excel) and the IC50(%), hill slope, z′ and % CV were determined. The mean IC50 and standard deviation will be derived from duplicate curves (singlet inhibition curves from two independent dilutions) using Microsoft Excel.
Representative compound data for this assay are listed below in Table II.
In general terms: Time-resolved FRET reads energy transfer from a long-lived donor to a nearby acceptor.
On to `CC(C)(C)c1cc(F)c2c(=O)n(Cc3ccc(-c4cc[nH]c(=O)c4)cc3)ncc2c1` [Compound I-1, 6-tert-Butyl-8-fluoro-2-[4-(2-oxo-1,2-dihydro-pyridin-4-yl)-benzyl]-2H-phthalazin-1-one], for which the IC50 was found to be 3.32 µM. With `CC(C)(C)c1cc(F)c2c(=O)n(Cc3ccc(-c4cc[nH]c(=O)c4)cc3F)ncc2c1` [Compound I-2, 6-tert-Butyl-8-fluoro-2-[2-fluoro-4-(2-oxo-1,2-dihydro-pyridin-4-yl)-benzyl]-2H-phthalazin-1-one], the IC50 was 0.983 µM.

`CC(C)(C)c1cc(F)c2c(=O)n(-c3cccc(-c4cc[nH]c(=O)c4)c3CO)ncc2c1` [Compound I-3, 6-tert-Butyl-8-fluoro-2-[2-hydroxymethyl-3-(2-oxo-1,2-dihydro-pyridin-4-yl)-phenyl]-2H-phthalazin-1-one]: the IC50 turned out to be 0.366 µM. With `CC(C)(C)c1cc(F)c2c(=O)n(Cc3c(F)cc(-c4cc[nH]c(=O)c4)cc3F)ncc2c1` [Compound I-4, 6-tert-Butyl-2-[2,6-difluoro-4-(2-oxo-1,2-dihydro-pyridin-4-yl)-benzyl]-8-fluoro-2H-phthalazin-1-one], the IC50 worked out at 13.3 µM. Then `CC(C)(C)c1cc(F)c2c(=O)n(Cc3ccc(-c4cc[nH]c(=O)c4)cc3CO)ncc2c1` [Compound I-5, 6-tert-Butyl-8-fluoro-2-[2-hydroxymethyl-4-(2-oxo-1,2-dihydro-pyridin-4-yl)-benzyl]-2H-phthalazin-1-one], with 3.14 µM; and `Cn1cc(-c2cc(-c3ccc(Cn4ncc5cc(C(C)(C)C)cc(F)c5c4=O)c(F)c3)cc(=O)[nH]2)cn1` [Compound I-6, 6-tert-Butyl-8-fluoro-2-{2-fluoro-4-[6-(1-methyl-1H-pyrazol-4-yl)-2-oxo-1,2-dihydro-pyridin-4-yl]-benzyl}-2H-phthalazin-1-one], with 0.0142 µM; and `Cc1c(NC(=O)c2ccc(C(C)(C)C)cc2)cccc1-c1cc[nH]c(=O)c1` [Compound I-7, 4-tert-Butyl-N-[2-methyl-3-(2-oxo-1,2-dihydro-pyridin-4-yl)-phenyl]-benzamide], with 6.91 µM. Then `CC(C)(C)c1cc(F)c2c(=O)n(Cc3ccc(-c4cc[nH]c(=O)c4)c(CO)c3)ncc2c1` [Compound I-8, 6-tert-Butyl-8-fluoro-2-[3-hydroxymethyl-4-(2-oxo-1,2-dihydro-pyridin-4-yl)-benzyl]-2H-phthalazin-1-one], with over 100 µM; and `CC(C)(C)c1cc(F)c2c(=O)n(Cc3cc(CO)c(-c4cc[nH]c(=O)c4)cc3F)ncc2c1` [Compound I-9, 6-tert-Butyl-8-fluoro-2-[2-fluoro-5-hydroxymethyl-4-(2-oxo-1,2-dihydro-pyridin-4-yl)-benzyl]-2H-phthalazin-1-one], with 52.3 µM. For `Cn1cc(-c2cc(-c3ccc(CN4Cc5cc(C(C)(C)C)sc5C4=O)c(F)c3)cc(=O)[nH]2)cn1` [Compound I-10, 2-tert-Butyl-5-{2-fluoro-4-[6-(1-methyl-1H-pyrazol-4-yl)-2-oxo-1,2-dihydro-pyridin-4-yl]-benzyl}-4,5-dihydro-thieno[2,3-c]pyrrol-6-one] the value was 0.00711 µM.
